A short description of the data set: Gel shift assay measuring PNA oligomer in tissue. The class given is in vivo. As to the method: To confirm the presence and measure the amount of PNA in brain after extracranial administration, a sensitive gel shift assay was developed. This assay involves using a radioactively-labeled oligonucleotide having sequence specificity for a PNA oligomer as a probe to detect that PNA oligomer. Briefly, a sample is prepared and incubated with a probe. If the sample contains a PNA oligomer having sequence specificity for the probe, then the probe can bind that PNA oligomer. This bound form of the probe then can be detected and quantified using gel electrophoresis since a probe bound to a PNA oligomer migrates differently than an unbound probe on a gel.
Brain extracts were prepared from either untreated animals or animals treated intraperitoneally with 10 mg/kg of the AS-NTR1-PNA oligomer. For the treated animals, brain tissue was collected 8 hours post treatment. To prepare brain extracts, flash frozen brain tissue (minus the PAG and hypothalamus) were homogenized in 1 mM Tris (pH 4.0), 0.1 mM EDTA at a concentration of 1.5 ml/g wet weight of tissue. This acidic condition can protonate cytosine bases as well as the N-terminal amino group of the PNA oligomer, which presumably increases the solubility of the PNA oligomer and allows the PNA oligomer to be found in an aqueous phase during the later extraction step. Samples were boiled for five minutes. This boiling step can free the bound PNA oligomer from its target sequence, and inactivate nucleases that may interfere with the integrity of the DNA oligonucleotide probe. Then, the samples were spun two to three times at 35,600×g for 10 minutes each to pellet insoluble material and the supernatants collected. Supernatants were extracted with 10 volumes of CHCl3:MeOH (2:1 v/v) to remove glycolipids that may interfere with gel electrophoresis, and spun briefly at 1,000×g to separate phases. For the standard curves using known amounts of a PNA oligomer, the PNA oligomer was added to the supernatant before the CHCl3:MeOH extraction. The supernatants were collected in a fresh tube, lyophilized, and resuspended in 30 to 40 μl of water.
Once prepared, approximately 400 pg of probe was added to each 30 to 40 μl sample. To prepare the probe, a DNA oligonucleotide (Gibco BRL, Gaithersburg, Md.) complementary to the AS-NTR1-PNA oligomer was end-labeled using T4 Polynucleotide Kinase (Gibco BRL) and [Gamma-^32P]ATP or [Gamma-^33P]ATP (New England Nuclear, Boston, Mass.) according to manufacturer's instructions. […]
After adding the probe, the samples were incubated at room temperature for 20 minutes. […] Signal was detected using a Storm860 Phosphoimager (Molecular Dynamics, Sunnyvale, Calif.) and data were analyzed using ImageQuant Software (Molecular Dynamics, Sunnyvale, Calif.). […]

Regarding “NTR1-PNA: 12-mer antisense PNA oligomer to rat NTR1 coding region, 5′-CATTGCTCAAAC-3′ (SEQ ID NO: 1) (all peptide nucleic acid (PNA))”, for the setting “8 hours after i.p. 10 mg/kg”, the “integrity of PNA oligomer recovered from brain (gel mobility shift)” value is on record as “unaltered”. In addition, the “presence of PNA oligomer in brain extracts” value (8 hours after i.p. 10 mg/kg, perfused and non-perfused animals) is recorded as “detected in brain extracts prepared from treated animals”. The “concentration of PNA oligomer within brain” value (8 hours after intraperitoneal 10 mg/kg, corrected for recovery) was 2.4±0.3 ng/whole brain. Moreover, the “presence of PNA oligomer in brain, heart, kidney, liver, spleen and blood” value (tissues 2 hours after i.p. 10 mg/kg (perfused), blood 5 minutes after i.v. 10 mg/kg) is on record as “detected in each tissue”.

Values taken from patent publication US6989270B1, “Using polyamide nucleic acid oligomers to engender a biological response” (Mayo Foundation for Medical Education and Research, priority 1997, dated 2006).
